Assay results published in article PMC9674851, “Biological effects of the loss of homochirality in a multicellular organism” (Nature Communications, 2022).
Numbered stars: 1 amine (or outer) side, 2 acyl side, 3 side chain; on linkers, the order of the positions; unused ones are H or OH. Square brackets hold non-standard residues; d marks the D form. Peptide text beside a SMILES is read from it. * marks the point of attachment. βAsp = O=C(O)[C@H](CC(=O)[*:2])N[*:1]; AMC = Cc1cc(=O)oc2cc(N*)ccc12

Key:
[1] = target: T1, recombinant human active Caspase-3 (Homo sapiens, UniProt P42574); experiment: ChiCAS: chiral-selective in vitro DEVD-ase assay; type: biochemical; conditions: for caspase-3 activity: substrate 20 µM in HEPES assay buffer with 10 mM DTT, fluorescence at 460 nm; for cleavage by Caspase-3 (in words): recombinant human Caspase-3, fluorogenic AMC substrates
T1 construct: Assay was performed with recombinant human active Caspase-3 (556471, BD Biosciences); purchased BD Biosciences 556471
T1 sequence (P42574 29-175 limits assumed): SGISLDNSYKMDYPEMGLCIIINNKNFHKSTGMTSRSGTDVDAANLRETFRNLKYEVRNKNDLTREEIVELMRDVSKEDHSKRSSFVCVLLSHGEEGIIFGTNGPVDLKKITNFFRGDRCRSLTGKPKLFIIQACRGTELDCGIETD
T1 sequence (P42574 176-277 limits assumed): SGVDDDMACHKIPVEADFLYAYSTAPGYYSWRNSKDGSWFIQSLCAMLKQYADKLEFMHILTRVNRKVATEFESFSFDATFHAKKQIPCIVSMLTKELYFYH
Protocol: The following homochiral and heterochiral fluorogenic substrates were chemically synthesised: Ac-DEV-(L-aspartate)-AMC (positive control), Ac-DEV-(iso-L-aspartate)-AMC, Ac-DEV-(D-aspartate)-AMC, Ac-DEV-(iso-D-aspartate)-AMC, Ac-DEVG-AMC and Ac-DEV-(L-alanine)-AMC (negative control) and […] (custom peptide synthesis by GenScript). All synthetic peptides were dissolved in DMSO and stored at -80 °C. Reactions were performed as described below. Ac-DEVx-AMC substrates were used in a final concentration of 20 μM in assay buffer (50 mM HEPES, 100 mM NaCl, 0,1% CHAPS, 1 mM EDTA, 10% Glycerol, 10 mM DTT - immediately added before use). Assay was performed with recombinant human active Caspase-3 (556471, BD Biosciences). Reactions were performed in 96 well microplates (100 μl/reaction) and caspase activity was monitored spectrophotometrically by the increase in fluorescence at 460 nm using Synergy 4 BioTek fluorescence absorbance microplate reader and Gen5 program.

[2] = set-up: method as in earlier work; conditions: ref http://www.ilo.org/dyn/icsc/showcard.display?p_version=2&p_card_id=1439; cited from earlier work
[3] = target: T2, purified recombinant human Pimt (Homo sapiens, UniProt P22061); experiment: Pimt colorimetric continuous enzyme coupled assay (SAM methyltransferase colorimetric assay); type: biochemical; conditions: Pimt 1 µM, substrate 100 µM, 37 °C
T2 construct: purchased Gentaur MBS144034
Protocol: SAM Methyltransferase colorimetric assay (Merck) was used to measure the activity of purified recombinant human Pimt (EC 2.1.1.77, MBS144034, Gentaur) on different target substrates at 37 °C. Pimt (1 µM final concentration) enzymatic activity was followed spectrophotometrically by the increase in absorbance at 510 nm using DeNovix DS-11 Series microvolume Spectrophotometer/Fluorometer. Assay was performed on different homo- and heterochiral synthetic substrates Ac-[…]-amide (Peptide 1), Ac-KRKGDEV-(iso-L-Asp)-GVDEVAK-amide (Peptide 2) (both of which HPLC purity is >90%), at 100 µM final concentration. The peptide’s sequence is identical and correspond to the PARP1 fragment which is cleaved by Dcp-1 in the in vivo cleavage assay.

T2 sequence (P22061 whole entry): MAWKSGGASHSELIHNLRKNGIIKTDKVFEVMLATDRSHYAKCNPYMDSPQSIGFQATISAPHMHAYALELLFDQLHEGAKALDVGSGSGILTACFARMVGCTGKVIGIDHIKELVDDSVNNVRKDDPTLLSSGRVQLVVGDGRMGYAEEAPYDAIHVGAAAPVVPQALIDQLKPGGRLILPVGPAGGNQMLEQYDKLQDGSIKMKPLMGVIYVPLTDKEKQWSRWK

Row | Compound | caspase-3 activity ([1]; experiment 1) [R.F.U.] | caspase-3 activity ([1]; experiment 2) [R.F.U.] | caspase-3 activity ([1]; experiment 3) [R.F.U.] | cleavage by Caspase-3 (in words) [1] | Octanol/water partition coefficient as log Pow [2] | Pimt enzymatic activity (in words) [3]
1 | CC(=O)N[C@@H](CC(=O)O)C(=O)N[C@@H](CCC(=O)O)C(=O)N[C@H](C(=O)N[C@@H](C)C(=O)Nc1ccc2c(C)cc(=O)oc2c1)C(C)C [Ac-DEVA-AMC, acetyl-DEVA-7-amido-4-methylcoumarin] (Ac-DEVA-{AMC}) | 396 | 61 | 164 | non-cleavable |  | 
2 | CC(=O)N[C@@H](CC(=O)O)C(=O)N[C@@H](CCC(=O)O)C(=O)N[C@H](C(=O)NCC(=O)Nc1ccc2c(C)cc(=O)oc2c1)C(C)C [Ac-DEVG-AMC, acetyl-DEVG-7-amido-4-methylcoumarin] (Ac-DEVG-{AMC}) | 650 | 558 | 613 | non-cleavable |  | 
3 | N[C@@H](CC(=O)O)C(=O)O [AsparticAcid] |  |  |  |  | -3.89 | 
4 | CC(=O)N[C@@H](CCCCN)C(=O)N[C@@H](CCCNC(=N)N)C(=O)N[C@@H](CCCCN)C(=O)NCC(=O)N[C@@H](CC(=O)O)C(=O)N[C@@H](CCC(=O)O)C(=O)N[C@H](C(=O)N[C@@H](CC(=O)O)C(=O)NCC(=O)N[C@H](C(=O)N[C@@H](CC(=O)O)C(=O)N[C@@H](CCC(=O)O)C(=O)N[C@H](C(=O)N[C@@H](C)C(=O)N[C@@H](CCCCN)C(N)=O)C(C)C)C(C)C)C(C)C [Peptide 1] (Ac-KRKGDEVDGVDEVAK-NH2) |  |  |  |  |  | no enzymatic activity was detected
5 | CC(=O)N[C@@H](CCCCN)C(=O)N[C@@H](CCCNC(=N)N)C(=O)N[C@@H](CCCCN)C(=O)NCC(=O)N[C@@H](CC(=O)O)C(=O)N[C@@H](CCC(=O)O)C(=O)N[C@H](C(=O)N[C@@H](CC(=O)NCC(=O)N[C@H](C(=O)N[C@@H](CC(=O)O)C(=O)N[C@@H](CCC(=O)O)C(=O)N[C@H](C(=O)N[C@@H](C)C(=O)N[C@@H](CCCCN)C(N)=O)C(C)C)C(C)C)C(=O)O)C(C)C [Peptide 2] (Ac-KRKGDEV[βAsp]GVDEVAK-NH2) |  |  |  |  |  | active Pimt enzymatic activity
